Laboratory results: US20230382910A1, “HETEROARYL COMPOUNDS FOR THE TREATMENT OF PAIN” (VERTEX PHARMACEUTICALS INCORPORATED, priority 2022, published 2023)

Biological target: human NaV 1.8 (Homo sapiens, UniProt Q9Y5Y9)
Experiment: E-VIPR Assay Detecting and Measuring NaV Inhibition Properties
Type: cell-based
Settings: HEK cells expressing a truncated form of human NaV 1.8; electrical stimulation, membrane potential FRET dyes; read-out: measured IC50 value in the E-VIPR Assay
Source text: E-VIPR Assay Detecting and Measuring NaV Inhibition Properties
Sodium ion channels are voltage-dependent proteins that can be activated by inducing membrane voltage changes by applying electric fields. The electrical stimulation instrument and methods of use, referred to as E-VIPR, are described in International Publication No. WO 2002/008748 A3 and C.-J. Huang et al. Characterization of voltage-gated sodium channel blockers by electrical stimulation and fluorescence detection of membrane potential, 24 Nature Biotech. 439-46 (2006), both of which are incorporated by reference in their entirety. The instrument comprises a microtiter plate handler, an optical system for exciting the coumarin dye while simultaneously recording the coumarin and oxonol emissions, a waveform generator, a current- or voltage-controlled amplifier, and parallel electrode pairs that are inserted into assay plate wells. Under integrated computer control, this instrument passes user-programmed electrical stimulus protocols to cells within the wells of the microtiter plate.
16-20 hours prior to running the assay on E-VIPR, HEK cells expressing a truncated form of human NaV 1.8 with full channel activity were seeded into microtiter 384-well plates, pre-coated with matrigel, at a density of 25,000 cells per well. 2.5-5% KIR2.1 BacMam virus was added to the final cell suspension before seeding into cell plates. HEK cells were grown in Dulbecco's Modified Eagle's Medium (DMEM) supplemented with 10% FBS (Fetal Bovine Serum, qualified; Sigma #F4135), 1% NEAA (Non-Essential Amino Acids, Gibco #11140), 1% HEPES (Gibco #15630), 1% Pen-Strep (Penicillin-Streptomycin; Gibco #15140) and 5 μg/ml Blasticidin (Gibco #R210-01). Cells were expanded in 5-layer CellSTACK culture chambers or cell culture flasks with vented caps, with 90-95% humidity and 5% CO2.
Compound Loading Buffer (2× concentration): Na/TMA Cl Bath1 Buffer containing HS (omitted in experiments run in the absence of human serum (HS)) 50%, VABSC-1 1 mM, BSA 0.2 mg/ml (in Bath-1), KCl 9 mM, DMSO 0.625%.
Assay Protocol (7 Key Steps):
1) To reach the final concentration in each well, 375 nL of each compound was pre-spotted (in neat DMSO) into polypropylene compound plates at 240× desired final concentration from an intermediate stock concentration of 0.075 mM, in an 11-point dose response, 3-fold dilution, resulting in a top dose of 300 nM final concentration in the cell plate. Vehicle control (neat DMSO), and positive control (an established NaV1.8 inhibitor, 25 μM final in assay in DMSO) were added manually to the outermost columns of each plate respectively. The compound plate was backfilled with 45 μL per well of Compound Loading Buffer resulting in a 240-fold dilution of compound following a 1:1 transfer of compound into the cell plate (see Step 6). Final DMSO concentration for all wells in the assay was 0.625% (0.75% DMSO was supplemented to the Compound Loading Buffer for a final DMSO concentration of 0.625%). This assay dilution protocol was adjusted to enable a higher dose range to be tested in the presence of HS or if the final assay volume was altered.
2) Hexyl Dye Solution was prepared.
3) Cell plates were prepared. On the day of the assay, the media was aspirated, and the cells were washed three times with 80 μL of Bath-1 buffer, maintaining 25 μL residual volume in each well.
4) 25 μL per well of Hexyl Dye Solution was dispensed into the cell plates. The cells were incubated for 20 minutes at room temperature or ambient conditions in darkness.
5) 45 μL per well of Compound Loading Buffer was dispensed into compound plates.
6) The cell plates were washed three times with 80 μL per well of Bath-1 Buffer, leaving 25 µL of residual volume. Then 25 μL per well from compound plate was transferred to each cell plate. The mixture was incubated for 30 minutes at room temperature/ambient conditions. […]

human NaV 1.8, sequence (Q9Y5Y9 126-399 limits assumed): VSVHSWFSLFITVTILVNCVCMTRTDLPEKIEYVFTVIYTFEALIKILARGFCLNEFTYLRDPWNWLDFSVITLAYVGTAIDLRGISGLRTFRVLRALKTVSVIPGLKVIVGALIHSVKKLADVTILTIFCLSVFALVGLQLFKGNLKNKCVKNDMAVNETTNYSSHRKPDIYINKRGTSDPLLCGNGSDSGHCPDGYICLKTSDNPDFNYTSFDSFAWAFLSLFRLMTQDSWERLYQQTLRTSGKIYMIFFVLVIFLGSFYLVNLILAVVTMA
human NaV 1.8, sequence (Q9Y5Y9 660-890 limits assumed): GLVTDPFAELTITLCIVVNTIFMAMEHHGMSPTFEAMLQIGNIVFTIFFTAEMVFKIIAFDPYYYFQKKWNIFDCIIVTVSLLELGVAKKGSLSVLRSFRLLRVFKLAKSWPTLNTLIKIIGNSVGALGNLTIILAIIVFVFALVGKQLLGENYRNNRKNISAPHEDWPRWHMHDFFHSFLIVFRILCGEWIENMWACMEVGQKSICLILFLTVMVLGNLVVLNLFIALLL
human NaV 1.8, sequence (Q9Y5Y9 1148-1722 limits assumed): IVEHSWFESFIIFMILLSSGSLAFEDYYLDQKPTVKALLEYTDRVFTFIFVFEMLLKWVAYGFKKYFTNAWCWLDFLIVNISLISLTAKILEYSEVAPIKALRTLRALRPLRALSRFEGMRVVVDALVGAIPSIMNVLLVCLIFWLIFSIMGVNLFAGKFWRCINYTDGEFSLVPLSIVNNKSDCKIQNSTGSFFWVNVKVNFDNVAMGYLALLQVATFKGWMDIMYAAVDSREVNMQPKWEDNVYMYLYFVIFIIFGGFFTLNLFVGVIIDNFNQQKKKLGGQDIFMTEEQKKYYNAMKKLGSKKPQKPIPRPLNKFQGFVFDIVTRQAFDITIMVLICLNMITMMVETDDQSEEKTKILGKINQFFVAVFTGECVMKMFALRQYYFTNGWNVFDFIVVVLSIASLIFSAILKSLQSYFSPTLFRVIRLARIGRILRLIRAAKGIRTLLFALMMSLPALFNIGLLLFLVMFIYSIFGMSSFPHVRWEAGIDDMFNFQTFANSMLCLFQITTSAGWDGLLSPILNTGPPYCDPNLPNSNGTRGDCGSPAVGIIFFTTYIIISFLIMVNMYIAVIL

SMILES | IC50
Cc1nc(C(C)(C)C)c(C)nc1-c1cc(=O)c2c(C(N)=O)nccc2[nH]1 [Compound 246, 2-(5-tert-butyl-3,6-dimethyl-pyrazin-2-yl)-4-oxo-1H-1,6-naphthyridine-5-carboxamide] | 0.5 to 2 µM
CC(C)(C)c1cc(F)c(-c2cc(O)c3c(C(N)=O)nccc3n2)c(F)c1 [Compound 247, 2-(4-(tert-butyl)-2,6-difluorophenyl)-4-hydroxy-1,6-naphthyridine-5-carboxamide] | 0.5 to 2 µM
Cc1nc(-c2ccccc2)c(Cl)cc1-c1cc(=O)c2c(C(N)=O)nccc2[nH]1 [Compound 273, 2-(5-chloro-2-methyl-6-phenyl-3-pyridyl)-4-oxo-1H-1,6-naphthyridine-5-carboxamide] | 0.5 to 2 µM
Cc1nc(C2(C)CC2)c(Cl)cc1-c1cc(=O)c2c(C(N)=O)nccc2[nH]1 [Compound 286, 2-[5-chloro-2-methyl-6-(1-methylcyclopropyl)-3-pyridyl]-4-oxo-1H-1,6-naphthyridine-5-carboxamide] | 0.5 to 2 µM
Cc1nc(C(C)(C)CO)c(Cl)cc1-c1cc(=O)c2c(C(N)=O)nccc2[nH]1 [Compound 297, 2-[5-chloro-6-(2-hydroxy-1,1-dimethyl-ethyl)-2-methyl-3-pyridyl]-4-oxo-1H-1,6-naphthyridine-5-carboxamide] | 2 to 5 µM
Cc1cc(C(C)(C)C)ccc1-c1cc(=O)c2nc(OCCN(C)C)ccc2[nH]1 [Compound 304, 2-(4-tert-butyl-2-methyl-phenyl)-6-[2-(dimethylamino)ethoxy]-1H-1,5-naphthyridin-4-one] | 0.5 to 2 µM
COc1cc(C(C)C)cc(C)c1-c1cc(=O)c2ccccc2[nH]1 [Compound 337, 2-(4-isopropyl-2-methoxy-6-methyl-phenyl)-1H-quinolin-4-one] | 0.5 to 2 µM
CC(C)(C)c1ccc(-c2cc(=O)c3cnccc3[nH]2)c(CCCO)c1 [Compound 346, 2-[4-tert-butyl-2-(3-hydroxypropyl)phenyl]-1H-1,6-naphthyridin-4-one] | 2 to 5 µM
CC(C)(C)c1ccc(-c2[nH]c3ccncc3c(=O)c2Br)c(CCCO)c1 [Compound 347, 3-bromo-2-[4-tert-butyl-2-(3-hydroxypropyl)phenyl]-1H-1,6-naphthyridin-4-one] | 2 to 5 µM
CC(C)CN(CC(C)C)c1nc2ccccc2cc1-c1cc(=O)c2c(C(N)=O)nccc2[nH]1 [Compound 351, 2-[2-(diisobutylamino)-3-quinolyl]-4-oxo-1H-1,6-naphthyridine-5-carboxamide] | 2 to 5 µM
CCCN(CCC)c1nc2ccccc2cc1-c1cc(=O)c2c(C(N)=O)nccc2[nH]1 [Compound 352, 2-[2-(dipropylamino)-3-quinolyl]-4-oxo-1H-1,6-naphthyridine-5-carboxamide] | 2 to 5 µM

Further lines, results first:

IC50 | SMILES
0.5 to 2 µM | CCCCN(CC)c1nc2ccccc2cc1-c1cc(=O)c2c(C(N)=O)nccc2[nH]1 [Compound 353, 2-[2-[butyl(ethyl)amino]-3-quinolyl]-4-oxo-1H-1,6-naphthyridine-5-carboxamide]
2 to 5 µM | Cc1cc(C(C)(C)CO)c(Cl)cc1-c1cc(=O)c2c(C(N)=O)nccc2[nH]1 [Compound 356, 2-[5-chloro-4-(2-hydroxy-1,1-dimethyl-ethyl)-2-methyl-phenyl]-4-oxo-1H-1,6-naphthyridine-5-carboxamide]
2 to 5 µM | Cc1nc(C(C)(C)C(=O)O)c(Cl)cc1-c1cc(=O)c2c(C(N)=O)nccc2[nH]1 [Compound 359, 2-[5-(5-carbamoyl-4-oxo-1H-1,6-naphthyridin-2-yl)-3-chloro-6-methyl-2-pyridyl]-2-methyl-propanoic acid]
0.5 to 2 µM | CCOC(=O)c1nc(C)c(-c2nccc3[nH]c(-c4cc(Cl)c(C(C)(C)C)cc4C)cc(=O)c23)o1 [Compound 390, ethyl 5-[2-(4-tert-butyl-5-chloro-2-methyl-phenyl)-4-oxo-1H-1,6-naphthyridin-5-yl]-4-methyl-oxazole-2-carboxylate]
0.5 to 2 µM | Cn1nc(C(C)(C)C)cc1-c1cc(=O)c2cc(F)ccc2[nH]1 [Compound 417, 2-(5-tert-butyl-2-methyl-pyrazol-3-yl)-6-fluoro-1H-quinolin-4-one]
2 to 5 µM | [2H]C([2H])([2H])C(c1cc(C)c(-c2cc(=O)c3c(C(N)=O)nccc3[nH]2)cc1Cl)(C([2H])([2H])[2H])C([2H])([2H])O [Compound 427, 2-(5-chloro-4-(1-hydroxy-2-(methyl-d3)propan-2-yl-1,1,3,3,3-d5)-2-methylphenyl)-4-oxo-1,4-dihydro-1,6-naphthyridine-5-carboxamide]
